From US12496336B2 (priority 2019, dated 2025)

Test system: H3N2 A/Hong Kong/1/1968 virus
Type: cell-based, influenza A virus

## CC(=O)N[C@H]1[C@H]([C@H](O)[C@H](O)CO)OC(C(=O)O)=C[C@@H]1N=C(N)N [Zanamivir, zanamivir]
  inhibition of cell-to-cell spread of the virus: efficient inhibition of cell-to-cell virus spread
